# Values of other authors as cited in patent US20100292199A1 (priority 2007, published 2010).
smiles,measurement,setting,value
C[C@]12CC[C@H]3[C@@H](CCC4=CC(=O)CC[C@@]43C)[C@@H]1CC[C@@H]2O [Testosterone],solubility in ethyl alcohol,ethyl alcohol,soluble in ethyl alcohol
same,solubility in water,water,insoluble in water
